Data reported in patent publication US4278670A, “7-Alpha-oxyiminoacylcephalosporins” (SmithKline Corporation, priority 1976, dated 1981).
In brackets after ≈: the same amount, converted by molar mass. Structures can show the parent of a compound that is named as a salt. Where two headings read alike, the source gives them in different places.

Legend:
Pseudo Aeruginosa HH 63 = test: MIC in vitro, Pseudo Aeruginosa HH 63 (G-); assay type: cell-based
S. Aureus HH 127 = test: MIC in vitro, S. Aureus HH 127 (G+); assay type: cell-based; settings: Staphylococcus aureus
Kleb. pneumoniae SK 2400 = test: MIC in vitro, Kleb. pneumoniae SK 2400 (G-); assay type: cell-based; settings: Klebsiella pneumoniae, SK2400
P. Mirabils PM 444 = test: MIC in vitro, P. Mirabils PM 444 (G-); assay type: cell-based
[1] = tested on: Serratia Marcescens ATCC 13880; test: MIC in vitro, Serratia Marcescens ATCC 13880 (G-); assay type: cell-based; settings: ATCC13880
Kleb. pneumoniae SK 1200 = test: MIC in vitro, Kleb. pneumoniae SK 1200 (G-); assay type: cell-based; settings: Klebsiella pneumoniae, SK1200
Salmonella ATCC 12176 = test: MIC in vitro, Salmonella ATCC 12176 (G-); assay type: cell-based; settings: ATCC12176
S. Aureus SK 23390 = test: MIC in vitro, S. Aureus SK 23390 (G+); assay type: cell-based; settings: Staphylococcus aureus
E. coli SK 12140 = test: MIC in vitro, E. coli SK 12140 (G-); assay type: cell-based; settings: Escherichia coli, SK12140
S. villaluz SK 70390 = test: MIC in vitro, S. villaluz SK 70390 (G+); assay type: cell-based
Strep. Faecalis HH 34358 = test: MIC in vitro, Strep. Faecalis HH 34358 (G+); assay type: cell-based; settings: Enterococcus faecalis
[2] = tested on: Entero. aerogenes ATCC 13048; test: MIC in vitro, Entero. aerogenes ATCC 13048 (G-); assay type: cell-based; settings: Klebsiella aerogenes, ATCC13048
Proteus morgani 179 = test: MIC in vitro, Proteus morgani 179 (G-); assay type: cell-based
E. coli HH 33779 = test: MIC in vitro, E. coli HH 33779 (G-); assay type: cell-based; settings: Escherichia coli, HH33779
Entero. cloacae HH 31254 = test: MIC in vitro, Entero. cloacae HH 31254 (G-); assay type: cell-based; settings: Enterobacter cloacae, HH31254
E. coli 12140 = test: mouse protection against E. coli 12140; assay type: in vivo; settings: Escherichia coli, sc, S.C.
Excerpt: For comparison with known used compounds, data for cefuroxime, cefazolin and cephalothin are included.

[3] = in vitro, G+, S. Aureus HH 127, read-out: MIC
[4] = in vitro, G-, Salmonella ATCC 12176, read-out: MIC
[5] = in vitro, G+, S. Aureus SK 23390, read-out: MIC
[6] = in vitro, G+, S. villaluz SK 70390, read-out: MIC
[7] = in vitro, G-, Entero. cloacae HH 31254, read-out: MIC
[8] = in vitro, G-, Kleb. pneumoniae SK 2400, read-out: MIC
[9] = in vitro, G-, Kleb. pneumoniae SK 1200, read-out: MIC
[10] = in vitro, G+, Strep. Faecalis HH 34358, read-out: MIC
[11] = in vitro, G-, Entero. aerogenes ATCC 13048, read-out: MIC
[12] = in vitro, G-, Proteus morgani 179, read-out: MIC

Row | Structure (SMILES) | MIC (Pseudo Aeruginosa HH 63) [µg/mL] | MIC (S. Aureus HH 127; [3]) [µg/mL] | MIC (Kleb. pneumoniae SK 2400) [µg/mL] | MIC (P. Mirabils PM 444) [µg/mL] | MIC ([1]; Serratia marcescens) [µg/mL] | MIC (Kleb. pneumoniae SK 1200) [µg/mL] | MIC (Salmonella ATCC 12176; [4]) [µg/mL] | MIC (S. Aureus SK 23390; [5]) [µg/mL] | MIC (E. coli SK 12140) [µg/mL] | MIC (S. villaluz SK 70390; [6]) [µg/mL] | MIC (Strep. Faecalis HH 34358) [µg/mL] | MIC [2] [µg/mL] | MIC (E. coli HH 33779) [µg/mL] | MIC (Entero. cloacae HH 31254; [7]) [µg/mL] | MIC (Kleb. pneumoniae SK 2400; [8]) [µg/mL] | MIC (Kleb. pneumoniae SK 1200; [9]) [µg/mL] | ED50 (E. coli 12140) [mg/kg] | MIC (Strep. Faecalis HH 34358; [10]) [µg/mL] | MIC [2, 11] [µg/mL] | MIC (Proteus morgani 179; [12]) [µg/mL] | other results
1 | CC(=O)OCC1=C(C(=O)O)N2C(=O)[C@@H](NC(=O)Cc3cccs3)[C@H]2SC1 [Cephalothin, cephalothin] | > 200 | 0.2 (≈ 0.504 µM) | 3.1 (≈ 7.82 µM) | 3.1 (≈ 7.82 µM) | > 200 | 1.6 (≈ 4.04 µM) | 0.8 (≈ 2.02 µM) | 0.2 (≈ 0.504 µM) | 3.1 (≈ 7.82 µM) | 50 (≈ 126 µM) | 12.5 (≈ 31.5 µM) | 12.5 (≈ 31.5 µM) | 6.3 (≈ 15.9 µM) | 6.3 (≈ 15.9 µM) | – | – | – | – | – | – | MIC (Proteus morgani 179): > 200 µg/mL
2 | Cc1nnc(SCC2=C(C(=O)O)N3C(=O)[C@@H](NC(=O)Cn4cnnn4)[C@H]3SC2)s1 [Cefazolin, cefazolin] | – | 0.4 (≈ 0.88 µM) | – | 3.1 (≈ 6.82 µM) | – | – | 0.8 (≈ 1.76 µM) | 0.2 (≈ 0.44 µM) | 0.8 (≈ 1.76 µM) | 200 (≈ 440 µM) | – | – | – | 0.8 (≈ 1.76 µM) | 0.8 (≈ 1.76 µM) | 0.8 (≈ 1.76 µM) | 6.25 | 6.3 (≈ 13.9 µM) | 1.6 (≈ 3.52 µM) | 100 (≈ 220 µM) | MIC (Pseudo Aeruginosa HH 63; in vitro, G-, Pseudo Aeruginosa HH 63, read-out: MIC): > 200 µg/mL; MIC ([1]; in vitro, G-, Serratia Marcescens ATCC 13880, read-out: MIC): 100 µg/mL (≈ 220 µM); MIC (E. coli HH 33779; in vitro, G-, E. coli HH 33779, read-out: MIC): 0.8 µg/mL (≈ 1.76 µM)
3 | CO/N=C(\C(=O)N[C@@H]1C(=O)N2C(C(=O)O)=C(COC(N)=O)CS[C@H]12)c1ccco1 [Cefuroxim, cefuroxime] | > 200 | – | 3.1 (≈ 7.3 µM) | 1.6 (≈ 3.77 µM) | 12.5 (≈ 29.5 µM) | 3.1 (≈ 7.3 µM) | – | – | 6.3 (≈ 14.8 µM) | – | – | – | 6.3 (≈ 14.8 µM) | – | – | – | 6.25 | 2.5 (≈ 5.89 µM) | 6.3 (≈ 14.8 µM) | 50 (≈ 118 µM) | MIC (S. Aureus HH 127): 0.8 µg/mL (≈ 1.89 µM); MIC (Salmonella ATCC 12176; Salmonella): 3.1 µg/mL (≈ 7.3 µM); MIC (S. Aureus SK 23390): 1.6 µg/mL (≈ 3.77 µM); MIC (S. villaluz SK 70390): > 200 µg/mL; MIC (Entero. cloacae HH 31254): 3.1 µg/mL (≈ 7.3 µM)
4 | CO/N=C(\C(=O)N[C@@H]1C(=O)N2C(C(=O)O)=C(CSc3nnnn3CCC(=O)O)CS[C@H]12)c1ccco1 [Example 1, 7[Syn-2-methoxyimino-2-α-furylacetamido]-3-[1-(2-carboxyethyl)tetrazol-5-ylthiomethyl]-3-cephem-4-carboxylic acid, disodium salt] | 200 | – | – | 0.2 | 3.1 | – | 0.8 | – | – | > 200 | 50 | 3.1 | 3.1 | 1.6 | 0.8 | 0.8 | 4.4 | – | – | 1.6 | MIC (S. Aureus HH 127): 3.1 µg/mL; MIC (S. Aureus SK 23390): 1.6 µg/mL; MIC (E. coli SK 12140; in vitro, G-, E. coli SK 12140, read-out: MIC): 1.6 µg/mL
